The source of these data is ChEMBL document CHEMBL1128307, “2-Aralkynyl and 2-heteroalkynyl derivatives of adenosine-5'-N-ethyluronamide as selective A2a adenosine receptor agonists” (J Med Chem, 1995).

Data set [1] deals with T1, Adenosine receptor A2a (Rattus norvegicus, UniProt P30543).
In data set [2] the target is T2, Adenosine receptor A1 (Rattus norvegicus, UniProt P25099).
T2 sequence (P25099 whole entry): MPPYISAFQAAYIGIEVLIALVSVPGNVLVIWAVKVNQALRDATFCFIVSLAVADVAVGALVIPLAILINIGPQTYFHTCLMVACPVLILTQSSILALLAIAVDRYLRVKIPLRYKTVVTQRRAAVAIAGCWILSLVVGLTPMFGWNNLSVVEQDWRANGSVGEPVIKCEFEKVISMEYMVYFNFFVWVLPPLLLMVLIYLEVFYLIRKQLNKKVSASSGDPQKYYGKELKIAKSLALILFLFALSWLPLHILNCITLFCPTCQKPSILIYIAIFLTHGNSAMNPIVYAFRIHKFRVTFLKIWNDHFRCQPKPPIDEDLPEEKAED
The experiment in a line: Functional activity against adenosine A1 receptor from rat atria.

Data set [3] addresses T2, Adenosine receptor A1.
Description: Binding affinity against adenosine A1 receptor from rat brain using [3H]CHA as a radioligand.
For data set [4], the target named is T1, Adenosine receptor A2a. The source holds these as a separate data set.
Description: Functional activity against adenosine A2a receptor from rat aorta.
A short description of data set [5]: Hydrophobicity index (k'') (RP-HPLC pH 7.5). Format: ADME.

T1 sequence (P30543 whole entry): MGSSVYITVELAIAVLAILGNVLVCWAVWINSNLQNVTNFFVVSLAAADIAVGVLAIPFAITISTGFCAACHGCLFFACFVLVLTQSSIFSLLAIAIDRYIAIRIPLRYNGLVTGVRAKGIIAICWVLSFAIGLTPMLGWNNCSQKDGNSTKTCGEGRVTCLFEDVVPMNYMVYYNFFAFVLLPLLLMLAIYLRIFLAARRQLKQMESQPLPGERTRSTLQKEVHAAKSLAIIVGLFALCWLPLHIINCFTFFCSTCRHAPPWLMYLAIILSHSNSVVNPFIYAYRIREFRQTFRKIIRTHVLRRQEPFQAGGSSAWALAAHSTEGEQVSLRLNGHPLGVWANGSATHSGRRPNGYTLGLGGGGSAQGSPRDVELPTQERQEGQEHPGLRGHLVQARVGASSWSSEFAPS

In general, Ki refers to the equilibrium dissociation constant of an inhibitor or competing ligand from its target. The low end stands for a stronger hold on the target, the high end for a looser hold on the target. For orientation: EC50 means the concentration that produces a half-maximal response. The low end stands for an effect from little substance, the high end for a need for much substance. For the compound `CCNC(=O)[C@H]1OC(n2cnc3c(N)nc(C#Cc4ccc(CCC(=O)OC(C)(C)C)cc4)nc32)[C@H](O)[C@@H]1O` (stereo not given in full), the figures for the Ki at Adenosine receptor A2a [1] and on Adenosine receptor A1 [3] were 743 nM and above 10000 nM, respectively. Also, the EC50 at Adenosine receptor A1 [2] was above 10000 nM; on Adenosine receptor A2a [4] it was 1350 nM. In addition, in data set [5], the “k'” value was 2.28.

`CCCCC#Cc1nc(N)c2ncn([C@@H]3O[C@H](C(=O)NCC)[C@@H](O)[C@H]3O)c2n1`: the EC50 on Adenosine receptor A2a [4] was determined as 596 nM. The “k'” value in data set [5] stood at 2.57.

Regarding `CCNC(=O)[C@H]1OC(n2cnc3c(N)nc(C#Cc4ccc(CCC(=O)O)cc4)nc32)[C@H](O)[C@@H]1O` (stereo not given in full), the Ki at Adenosine receptor A2a [1] and on Adenosine receptor A1 [3] was above 1000 nM each time. Besides, the EC50 is above 10000 nM on Adenosine receptor A1 [2] and 0.008 nM at Adenosine receptor A2a [4].

For `CCNC(=O)[C@H]1OC(n2cnc3c(N)nc(C#Cc4ccccn4)nc32)[C@H](O)[C@@H]1O` (stereo not given in full), the Ki at Adenosine receptor A2a [1] is 89.8 nM; at Adenosine receptor A1 [3], 114 nM. Also, the EC50 at Adenosine receptor A1 [2] was 840 nM; on Adenosine receptor A2a [4], 243 nM. The “k'” value in data set [5] was found to be 0.49.

For `CCNC(=O)[C@H]1OC(n2cnc3c(N)nc(C#CCN4CCN(C)CC4)nc32)[C@H](O)[C@@H]1O` (stereo not given in full), the Ki at Adenosine receptor A2a [1] was 19.1 nM; on Adenosine receptor A1 [3] it was 35.9 nM. Further, the EC50 at Adenosine receptor A1 [2] was 877 nM; on Adenosine receptor A2a [4], 408 nM. In addition, the “k'” value in data set [5] was found to be 0.42.

As for `CCNC(=O)[C@H]1O[C@@H](n2cnc3c(N)nc(NCCc4ccc(CCC(=O)O)cc4)nc32)[C@H](O)[C@@H]1O` [CGS-21680], in data set [5], the “k'” value turned out to be 0.24.

With `CCNC(=O)[C@H]1OC(n2cnc3c(N)nc(C#Cc4cccc(C=O)c4)nc32)[C@H](O)[C@@H]1O` (stereo not given in full), the Ki on Adenosine receptor A2a [1] was found to be 176 nM; on Adenosine receptor A1 [3], 1440 nM. In addition, the EC50 at Adenosine receptor A1 [2] was above 10000 nM; on Adenosine receptor A2a [4], 3570 nM. Moreover, in data set [5], the “k'” value is 1.06.

Take `OC[C@H]1O[C@@H](n2cnc3c(NC4CCCC4)nc(Cl)nc32)[C@H](O)[C@@H]1O`: in data set [5], the “k'” value was found to be 2.76.

For the compound `CCNC(=O)[C@H]1OC(n2cnc3c(N)nc(C#Cc4cccnc4)nc32)[C@H](O)[C@@H]1O` (stereo not given in full), the Ki was determined as 234 nM on Adenosine receptor A2a [1] and 139 nM at Adenosine receptor A1 [3]. The results for the half-maximal effective concentration (EC50) at Adenosine receptor A1 [2] and on Adenosine receptor A2a [4] were 415 nM and 491 nM, respectively. In data set [5], the “k'” value worked out at 0.51.

Turning to `CCNC(=O)[C@H]1OC(n2cnc3c(N)nc(C#CCN4CCCCC4)nc32)[C@H](O)[C@@H]1O` (stereo not given in full), the Ki worked out at 4.3 nM on Adenosine receptor A2a [1] and 27.5 nM on Adenosine receptor A1 [3]. Moreover, the EC50 worked out at 322 nM at Adenosine receptor A1 [2] and 302 nM on Adenosine receptor A2a [4]. In addition, in data set [5], the “k'” value was determined as 1.11.

As to `C#Cc1nc(N)c2ncn([C@@H]3O[C@H](C(=O)NCC)[C@@H](O)[C@H]3O)c2n1`, the Ki on Adenosine receptor A2a [1] stood at 57.8 nM. In addition, it took 440 nM to reach a half-maximal effect on Adenosine receptor A2a [4] (EC50). The “k'” value in data set [5] is listed as 0.25.

Consider `CCNC(=O)[C@H]1OC(n2cnc3c(N)nc(C#Cc4cccc5ccccc45)nc32)[C@H](O)[C@@H]1O` (stereo not given in full), for which the Ki on Adenosine receptor A2a [1] amounted to 488 nM; on Adenosine receptor A1 [3], 4460 nM. In addition, the EC50 on Adenosine receptor A1 [2] is above 10000 nM; at Adenosine receptor A2a [4] it was 468 nM. Further, in data set [5], the “k'” value stood at 5.49.

Consider `CCNC(=O)[C@H]1OC(n2cnc3c(N)nc(C#Cc4ccc(OC)cc4)nc32)[C@H](O)[C@@H]1O` (stereo not given in full), for which the Ki on Adenosine receptor A2a [1] worked out at 52.4 nM; on Adenosine receptor A1 [3], 414 nM. For the same compound, the EC50 on Adenosine receptor A1 [2] is above 10000 nM; at Adenosine receptor A2a [4], 3480 nM. In data set [5], the “k'” value is listed as 2.15.

On to `CCNC(=O)[C@H]1OC(n2cnc3c(N)nc(C#Cc4ccc(C(F)(F)F)cc4)nc32)[C@H](O)[C@@H]1O` (stereo not given in full), for which the Ki was 315 nM at Adenosine receptor A2a [1] and 2430 nM on Adenosine receptor A1 [3]. Moreover, a half-maximal effect on Adenosine receptor A2a [4] (EC50) was put at 2990 nM. Also, the “k'” value in data set [5] stood at 5.79.

Consider `CCNC(=O)[C@H]1O[C@@H](n2cnc3c(N)ncnc32)[C@H](O)[C@@H]1O` [NECA], for which the “k'” value in data set [5] was determined as 0.19.

`CCNC(=O)[C@H]1O[C@@H](n2cnc3c(N)nc(C#CCCCc4ccccc4)nc32)[C@H](O)[C@@H]1O`: the results for the Ki at Adenosine receptor A2a [1] and at Adenosine receptor A1 [3] were 1.2 nM and 209 nM, respectively. On Adenosine receptor A1 [2], this compound returned an EC50 of 6480 nM. The “k'” value in data set [5] is reported as 5.82.
